Test systems include HCC 2998; SNB-75; K562; UACC-62; UO-31; OVCAR-5; 786-0; A498; NCI-H23; T47D; MOLT-4; EKVX; HCT-116; SF-295; MDA-MB-435; BT-549; SK-MEL-28; M14; SW-620.
Common to all, as to assay: growth of human tumour cells (NCI), 48 h

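Growth conditions: 96-well plates. Treatment: test compound, 48 hours, 5 concentrations. Analysis: linear interpolation between bracketing concentrations; unreached endpoints set to highest concentration. The concentration for 50% growth inhibition is given as GI50.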 Calls of active or inactive are those of the source. Rule as the data show it: active = GI50 up to about 1.1 µM and inactive = higher.

As to `CC1CC[C@@]2(OC1)OC1C[C@H]3[C@@H]4CC=C5C[C@@H](OC6OC(CO)C(OC7OC(CO)C(O)C(O)C7O)C(O)C6OC6OC(C)C(O)C(O)C6O)CC[C@]5(C)[C@H]4CC[C@]3(C)C1[C@@H]2C` (stereo not given in full), the GI50 is 0.484 µM (active) with HCC 2998; 2.07 µM (inactive) in the test on SNB-75; 0.466 µM (active) with K562; 0.469 µM (active) with UACC-62; 0.48 µM (active) in the test on UO-31; 1.42 µM (inactive) with OVCAR-5. The GI50 in the test with 786-0 was 0.49 µM (active); in the test with A498, 0.611 µM (active); with NCI-H23, 0.783 µM (active); with T47D, 0.513 µM (active); in the test with MOLT-4, 0.434 µM (active); in the test on EKVX it was 0.544 µM (active). For the same compound, the GI50 in the test on HCT-116 was 0.838 µM (active); in the test with SF-295, 1.94 µM (inactive); in the test with MDA-MB-435, 0.558 µM (active); in the test with BT-549 it was 0.463 µM (active); with SK-MEL-28, 0.53 µM (active); in the test with M14, 0.479 µM (active). The GI50 in the test with SW-620 is 0.624 µM (active).
Consider `O=C1Nc2ccc(Br)cc2/C1=N/Nc1ccccc1[N+](=O)[O-]`, for which the GI50 was 13 µM (inactive) in the test on HCC 2998; 15.8 µM (inactive) in the test with SNB-75; 16.6 µM (inactive) in the test with K562; 22.2 µM (inactive) in the test with UACC-62; 16.9 µM (inactive) with UO-31; 12.7 µM (inactive) in the test with OVCAR-5. For the same compound, the GI50 in the test with 786-0 is 24.6 µM (inactive); with A498 it was 28 µM (inactive); in the test with NCI-H23 it was 3.56 µM (inactive); in the test on T47D, 29.9 µM (inactive); with MOLT-4, 42.9 µM (inactive); with EKVX, 6.31 µM (inactive). Besides, the GI50 with HCT-116 was 32.4 µM (inactive); with SF-295, 14 µM (inactive); in the test with MDA-MB-435, 21.1 µM (inactive); in the test on BT-549, 30.7 µM (inactive); in the test with SK-MEL-28, 19.7 µM (inactive); in the test with M14 it was 13.9 µM (inactive). Further, the GI50 in the test on SW-620 was 25 µM (inactive).
Turning to `CC(=O)O[C@H]1[C@H](OC(C)=O)[C@@H](CN=[N+]=[N-])OCO[C@@H]1CN=[N+]=[N-]`, the GI50 in the test with HCC 2998, with SNB-75, with K562, in the test on UACC-62, in the test on OVCAR-5 and with 786-0 was > 100 µM (inactive) in each case. The GI50 with A498, with NCI-H23, in the test with T47D, in the test on MOLT-4, in the test on EKVX and in the test with HCT-116 was > 100 µM (inactive) throughout. In addition, the GI50 in the test on SF-295, with MDA-MB-435, in the test on BT-549, in the test with SK-MEL-28, in the test with M14 and in the test with SW-620 was > 100 µM (inactive) throughout.
For the compound `COc1ccc(/C=N\N(C)Cc2cccc3ccsc23)cc1`, the GI50 in the test on HCC 2998 is > 100 µM (inactive); in the test with SNB-75, > 100 µM (inactive); in the test with K562 it was 54.8 µM (inactive); with UACC-62, > 100 µM (inactive); in the test on UO-31 it was > 100 µM (inactive); with OVCAR-5 it was > 100 µM (inactive). The GI50 was > 100 µM (inactive) in the test with 786-0; > 100 µM (inactive) in the test with A498; 60.4 µM (inactive) with NCI-H23; > 100 µM (inactive) in the test with T47D; 46.8 µM (inactive) with MOLT-4; > 100 µM (inactive) in the test with EKVX. For the same compound, the GI50 is 72.4 µM (inactive) in the test with HCT-116; > 100 µM (inactive) in the test with SF-295; > 100 µM (inactive) in the test with MDA-MB-435; > 100 µM (inactive) in the test on BT-549; > 100 µM (inactive) with SK-MEL-28; > 100 µM (inactive) in the test on M14. For the same compound, the GI50 in the test on SW-620 is > 100 µM (inactive).
As for `CCOC(=O)/C=C(/C(=O)OCC)n1cc(C)c(=O)n(/C(=C/C(=O)OCC)C(=O)OCC)c1=O`, the GI50 in the test on HCC 2998 is 9.48 µM (inactive); in the test on SNB-75 it was 9.73 µM (inactive); in the test with K562 it was 1.58 µM (inactive); in the test on UACC-62 it was 5.97 µM (inactive); in the test with UO-31 it was 5.31 µM (inactive); in the test on OVCAR-5 it was 6.62 µM (inactive). The GI50 with 786-0 is 1.28 µM (inactive); with A498, 19.8 µM (inactive); with NCI-H23, 4.03 µM (inactive); with T47D it was 2.64 µM (inactive); in the test on MOLT-4, 1.32 µM (inactive); in the test on EKVX it was 3.06 µM (inactive). Besides, the GI50 in the test with HCT-116 is 1.91 µM (inactive); with SF-295, 18.7 µM (inactive); with MDA-MB-435, 2.5 µM (inactive); in the test with BT-549, 5.79 µM (inactive); with SK-MEL-28, 2.19 µM (inactive); in the test with M14, 2.31 µM (inactive). In addition, the GI50 in the test on SW-620 was 1.22 µM (inactive).
Consider `CN(C)CCNC(=O)c1cccc2nc3c(C(=O)NCCN(C)C)cccc3nc12`, for which the GI50 in the test on HCC 2998 is 1.15 µM (inactive); with SNB-75 it was 2.63 µM (inactive); with K562, 0.621 µM (active); with UACC-62, 2.9 µM (inactive); with UO-31 it was 1.41 µM (inactive); with OVCAR-5, 2.3 µM (inactive). The GI50 in the test with 786-0 was 0.393 µM (active); in the test on A498 it was 1.85 µM (inactive); in the test with NCI-H23 it was 1.19 µM (inactive); with T47D, 4.34 µM (inactive); in the test with MOLT-4, 0.43 µM (active); with EKVX, 1.49 µM (inactive). Moreover, the GI50 was 0.603 µM (active) in the test on HCT-116; 1.31 µM (inactive) with SF-295; 1.21 µM (inactive) in the test on MDA-MB-435; 3.18 µM (inactive) with BT-549; 2.03 µM (inactive) in the test with SK-MEL-28; 1.51 µM (inactive) with M14. The GI50 in the test with SW-620 was 0.462 µM (active).
Consider `Cn1c(C(O)C2(c3cccnc3)SCCCS2)cc2ccccc21` (stereo not given), for which the GI50 was > 100 µM (inactive) with HCC 2998; 73.3 µM (inactive) in the test on SNB-75; 41.1 µM (inactive) in the test on K562; 88.3 µM (inactive) with UACC-62; 37.2 µM (inactive) in the test on UO-31; > 100 µM (inactive) with OVCAR-5. The GI50 was > 100 µM (inactive) in the test with 786-0; > 100 µM (inactive) in the test with A498; 47.8 µM (inactive) in the test on NCI-H23; 51.1 µM (inactive) in the test with T47D; 72.3 µM (inactive) in the test on EKVX; > 100 µM (inactive) in the test with HCT-116. The GI50 in the test with SF-295 was 56.9 µM (inactive); in the test on MDA-MB-435 it was 90.2 µM (inactive); in the test on BT-549, 44.5 µM (inactive); in the test with SK-MEL-28, > 100 µM (inactive); in the test on M14 it was 89.7 µM (inactive); with SW-620, > 100 µM (inactive).
As for `Brc1cccc(Nc2ncnc3sc4c(c23)CCC2(C4)OCCO2)c1`, the GI50 in the test with HCC 2998 is 23.7 µM (inactive); in the test on SNB-75 it was 23.1 µM (inactive); in the test with UACC-62 it was 22.9 µM (inactive); with UO-31 it was 2.07 µM (inactive); in the test with OVCAR-5, > 100 µM (inactive); in the test on 786-0, 25.7 µM (inactive). Also, the GI50 was 15.3 µM (inactive) in the test on A498; 29.8 µM (inactive) with NCI-H23; 5.61 µM (inactive) in the test on T47D; 19.3 µM (inactive) in the test with EKVX; 27.2 µM (inactive) in the test on HCT-116; 32.5 µM (inactive) with SF-295. The GI50 was 28.2 µM (inactive) in the test on MDA-MB-435, 27.5 µM (inactive) in the test with BT-549, 31.1 µM (inactive) with M14 and 0.0203 µM (active) with SW-620.
Consider `COc1cc(Oc2nc3ccccc3nc2C(=O)O)cc(OC)c1OC`, for which the GI50 in the test with HCC 2998, with SNB-75, in the test with K562, in the test with UACC-62, in the test on UO-31 and in the test with OVCAR-5 was > 100 µM (inactive) each time. Besides, the GI50 in the test on 786-0, with A498, with NCI-H23, in the test with T47D, in the test on MOLT-4 and in the test on EKVX was > 100 µM (inactive) in each case. Also, the GI50 in the test on HCT-116, in the test on SF-295, in the test on MDA-MB-435, in the test on BT-549, in the test with SK-MEL-28 and in the test with M14 was > 100 µM (inactive) in each case. The GI50 in the test on SW-620 is > 100 µM (inactive).
As to `C=CC(C)(C)NC(C(=O)N1CCC[C@H]1c1nc(-c2nc(C(=O)OCC=C(C)C)c(C)o2)c(C)o1)C(C)C` (stereo not given in full), the GI50 in the test on HCC 2998 was > 100 µM (inactive); in the test on SNB-75 it was 33.3 µM (inactive); with K562 it was > 60.7 µM (inactive); in the test on UACC-62, 37.8 µM (inactive); with UO-31 it was 21.8 µM (inactive); in the test on OVCAR-5, > 76 µM (inactive). Moreover, the GI50 in the test with 786-0 is > 58.1 µM (inactive); with A498 it was 47.1 µM (inactive); with NCI-H23, > 100 µM (inactive); in the test with T47D, 74.8 µM (inactive); with MOLT-4, 47.5 µM (inactive); in the test on EKVX it was > 52 µM (inactive). In addition, the GI50 in the test on HCT-116 is > 60.7 µM (inactive); in the test on SF-295 it was > 50 µM (inactive); in the test with MDA-MB-435 it was > 45.1 µM (inactive); in the test with BT-549 it was > 100 µM (inactive); with SK-MEL-28, > 66.1 µM (inactive); with M14, > 62.2 µM (inactive). Besides, the GI50 in the test with SW-620 was 45.8 µM (inactive).

For the origin of these results see ChEMBL document CHEMBL1201862, “PubChem BioAssay data set” (2004).
